Reference: patent US11274090B2, “P300/CBP HAT inhibitors” (Constellation Pharmaceuticals, Inc., priority 2018, dated 2022)

Target: p300 HAT domain (residues 1287-1666) (Homo sapiens (Human), UniProt Q09472)
Experiment: p300 HAT SPA assay (scintillation proximity assay, acetylation of biotinylated H3(1-21) peptide)
Assay type: biochemical
Conditions: average of at least 2 replicate titrations
Procedure, shortened: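 Scintillation proximity readout of acetylated biotin-H3(1-21) captured on streptavidin plates after 1.5 hr at RT; enzyme was Ni2+/anion-exchange-purified HAT domain in 20 mM Hepes pH 7.5. Inhibitor IC50s calculated from the data.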

p300 HAT domain (residues 1287-1666), sequence (Q09472 1287-1666): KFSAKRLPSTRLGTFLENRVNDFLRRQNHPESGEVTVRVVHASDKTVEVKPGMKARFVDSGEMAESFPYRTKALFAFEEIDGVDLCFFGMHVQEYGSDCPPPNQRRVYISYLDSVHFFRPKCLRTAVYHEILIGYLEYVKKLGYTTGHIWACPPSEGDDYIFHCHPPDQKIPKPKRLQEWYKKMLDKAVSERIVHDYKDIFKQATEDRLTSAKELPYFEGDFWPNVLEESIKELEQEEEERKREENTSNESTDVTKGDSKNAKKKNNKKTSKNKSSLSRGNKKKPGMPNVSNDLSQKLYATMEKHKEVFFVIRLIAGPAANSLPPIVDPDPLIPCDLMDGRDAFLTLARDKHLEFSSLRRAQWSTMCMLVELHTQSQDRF

Molecule	IC50
CC(Cc1ccc(Cl)cc1)NC(C(=O)Nc1ccc(-c2cnn(C)c2)cc1)c1ccccc1 (single isomer, unassigned) [3 Isomer 2]	> 5000 nM
Cc1ccc(CCNC(C(=O)Nc2ccc(-c3cnn(C)c3)cn2)c2ccccc2)cn1 (single isomer, unassigned) [141 Isomer 1]	95.1 nM
Cc1ccc(C(C)CNC(C(=O)Nc2ccc(-c3cnn(C)c3)cn2)c2ccccc2)cn1 (single isomer, unassigned) [143 Isomer 4]	171 nM
Cc1ccc(C(C)CNC(C(=O)Nc2ccc(-c3cnn(C)c3)cn2)c2ccccc2)cn1 (single isomer, unassigned) [143 Isomer 1]	> 2000 nM
COC1CN(c2ccc(NC(=O)C(NCC(C)c3ccc(C#N)cc3)c3ccccc3)nc2)C1 (single isomer, unassigned) [32 Isomer 4]	> 2000 nM
N#Cc1ccc(CCNC(C(=O)Nc2ccc(N3CCOCC3)cn2)c2ccccc2)cc1 (single isomer, unassigned) [81 Isomer 2]	> 2000 nM
C[C@H](CNC(C(=O)Nc1ccc(C2CC(=O)N(C)C2)cn1)c1ccccc1)c1ccc(C#N)cc1 (single isomer, unassigned) [109 Isomer 3]	61.3 nM
CC(Cc1ccc(Cl)cc1)NC(C(=O)Nc1ccc(-c2cnn(C)c2)cc1)c1ccccc1 (single isomer, unassigned) [3 Isomer 3]	> 5000 nM
Cn1cc(-c2ccc3c(c2)CCCN3C(=O)[C@@H](NCCc2ccc(C#N)cc2)c2ccccc2)cn1 (single isomer, unassigned) [151 Isomer 1]	> 5000 nM
N#Cc1ccc(CCNC(C(=O)Nc2ccn(C3CCOCC3)n2)c2ccccc2)cc1 (single isomer, unassigned) [30 Isomer 2]	> 5000 nM
CC(CNC(C(=O)Nc1ccc(-c2cnn(C(C)(C)C)c2)cn1)c1ccccc1)c1ccc(C#N)cc1 (single isomer, unassigned) [54 Isomer 3]	> 2000 nM
Cc1noc(C)c1-c1ccc(NC(=O)C(NC[C@@H](C)c2ccc(C#N)cc2)c2ccccc2)nc1 (single isomer, unassigned) [131 Isomer 1]	367 nM
CO[C@@H]1CCN(c2ccc(NC(=O)C(NCC(C)c3ccc(C#N)cc3)c3ccccc3)nc2)C1 (single isomer, unassigned) [92 Isomer 2]	11.5 nM
N#Cc1ccc(CCNC(C(=O)Nc2ccc(N3CCCC3)nc2)c2ccccc2)cc1 (single isomer, unassigned) [35 Isomer 2]	> 5000 nM
CC(CNC(C(=O)Nc1ccc(N2CCN(CC(F)(F)F)C(=O)C2)cn1)c1ccccc1)c1ccc(C#N)cc1 (single isomer, unassigned) [103 Isomer 2]	14.3 nM
CC(Cc1ccc(Cl)cc1)NC(C(=O)Nc1ccc(-c2cnn(C)c2)cc1)c1ccccc1 (single isomer, unassigned) [3 Isomer 1]	196 nM
Cn1cc(-c2ncc(NC(=O)C(NCCc3ccc(C#N)cc3)c3ccccc3)cn2)cn1 (single isomer, unassigned) [23 Isomer 1]	> 5000 nM
Cc1ccc(CCNC(C(=O)Nc2ccc(-c3cnn(C)c3)cn2)c2ccccc2)cn1 (single isomer, unassigned) [141 Isomer 2]	> 2000 nM
CC1(C)CCN(c2ccc(NC(=O)C(NCCc3ccc(C#N)cc3)c3ccccc3)nc2)CC1 (single isomer, unassigned) [65 Isomer 2]	> 5000 nM
Cc1ncc(-c2ccc(NC(=O)[C@H](NC[C@@H](C)c3ccc(C#N)cc3)c3ccccc3)nc2)cn1 (single isomer, unassigned; isomer 3) [6 Isomer 3]	> 2000 nM
CC(CNC(C(=O)Nc1ccc(-c2cnn(C)n2)cn1)c1ccccc1)c1ccc(C(F)(F)F)cc1 (single isomer, unassigned) [99 Isomer 2]	1020 nM
Cn1cc(-c2ccc(NC(=O)C(NCCc3ccc(C#N)cc3)c3ccccc3)nn2)cn1 (single isomer, unassigned) [57 Isomer 1]	815 nM
CN1CCN(c2ccc(NC(=O)C(NCCc3ccc(Cl)cc3)c3ccccc3)nc2)CC1 (single isomer, unassigned) [69 Isomer 2]	> 2000 nM
Cc1nc(-c2ccc(NC(=O)C(NC[C@@H](C)c3ccc(C#N)cc3)c3ccccc3)nc2)no1 (single isomer, unassigned) [107 Isomer 1]	> 2000 nM
Cn1cc(-c2ccc(NC(=O)C(NCCc3ccc(S(N)(=O)=O)cc3)c3ccccc3)cc2)cn1 (single isomer, unassigned) [4 Isomer 1]	4990 nM
Cn1cc(-c2ccc(NC(=O)C(NCCc3ccc(C#N)cc3)c3ccccc3)nn2)cn1 (single isomer, unassigned) [57 Isomer 2]	> 5000 nM
Cc1ccc(-c2ccc(NC(=O)C(NCC(C)c3ccc(C#N)cc3)c3ccccc3)nc2)nn1 (single isomer, unassigned) [15 Isomer 2]	> 2000 nM
Cc1cnc(-c2ccc(NC(=O)[C@@H](NCCc3ccc(Cl)cc3)c3ccccc3)cc2)[nH]1 (single isomer, unassigned) [9 Isomer 1]	> 5000 nM

Molecule	IC50
(S,R)-, (R,S)-, (S,S)-, (R,R)-(2-((2-(4-cyanophenyl)propyl)amino)-N-(5-(1-(difluoromethyl)-1H-pyrazol-4-yl)pyridin-2-yl)-2-phenylacetamide [20 Isomer 4]	> 2000 nM
CC(CNC(C(=O)Nc1ccc(N2CCN(CC(F)(F)F)C(=O)C2)cn1)c1ccccc1)c1ccc(C#N)cc1 (single isomer, unassigned) [103 Isomer 1]	> 2000 nM
Cn1cc(-c2ccc(NC(=O)C(NCC(c3ccc(C#N)cc3)C(F)(F)F)c3ccccc3)nc2)cn1 (single isomer, unassigned) [149 Isomer 4]	> 2000 nM
N#Cc1ccc(CCNC(C(=O)Nc2ccc(N3CCC(F)(F)CC3)cn2)c2ccccc2)cc1 (single isomer, unassigned) [38 Isomer 1]	206 nM
CC(CNC(C(=O)Nc1ccc(-c2cnn(C)c2)cn1)c1ccccc1)c1ccc(C#N)cc1F (single isomer, unassigned) [90 Isomer 4]	> 2000 nM
Cn1cc(-c2ccc(NC(=O)C(NCCc3c(F)cc(C#N)cc3F)c3ccccc3)nc2)cn1 (racemic) [86 racemic, (S)- and (R)-2-((4-cyano-2,6-difluorophenEthyl)amino)-N-(5-(1-methyl-1H-pyrazol-4-yl)pyridin-2-yl)-2-phenylacetamide]	169 nM
CC1C(=O)N(C)CCN1c1ccc(NC(=O)C(NC[C@@H](C)c2ccc(C#N)cc2)c2ccccc2)nc1 (single isomer, unassigned) [126 Isomer 1]	21.1 nM
Cn1cc(-c2ccc(NC(=O)C(NCCc3ccc(C#N)cc3)c3ccc(C(F)(F)F)cc3)nc2)cn1 (single isomer, unassigned) [120 Isomer 2]	> 2000 nM
Cc1nc(NC(=O)C(NCC(C)c2ccc(C#N)cc2)c2ccccc2)ccc1-c1cnn(C)c1 (single isomer, unassigned) [39 Isomer 3]	17.7 nM
COc1cccc(C(NCCc2ccc(C#N)cc2)C(=O)Nc2ccc(-c3cnn(C)c3)cn2)c1 (single isomer, unassigned) [70 Isomer 2]	243 nM
CS(=O)(=O)N1CCN(c2ccc(NC(=O)C(NCCc3ccc(C#N)cc3)c3ccccc3)nc2)CC1 (single isomer, unassigned) [68 Isomer 1]	> 2000 nM
N#Cc1ccc(CCNC(C(=O)Nc2ccc(C3CCC3)cn2)c2ccccc2)cc1 (single isomer, unassigned) [46 Isomer 2]	486 nM
CC(CNC(C(=O)Nc1ccc(-c2cnn(C)n2)cn1)c1ccccc1)c1ccc(C(F)(F)F)cc1 (single isomer, unassigned) [99 Isomer 4]	28.3 nM
Cc1cn(-c2ccc(NC(=O)[C@@H](NCCc3ccc(Cl)cc3)c3ccccc3)cc2)cn1 (single isomer, unassigned) [16 Isomer 2]	> 5000 nM
CO[C@@H]1CCN(c2ccc(NC(=O)C(NCC(C)c3ccc(C#N)cc3)c3ccccc3)nc2)C1 (single isomer, unassigned) [92 Isomer 3]	599 nM
CC(CNC(C(=O)Nc1ccc(-c2cnn(C(C)(C)CO)c2)cn1)c1ccccc1)c1ccc(C#N)cc1 (single isomer, unassigned) [8 Isomer 3]	1230 nM
CC(CNC(C(=O)Nc1ccc(N2CCN(CC(F)(F)F)C(=O)C2)cn1)c1ccccc1)c1ccc(C#N)cc1 (single isomer, unassigned) [103 Isomer 3]	1000 nM
COC1CCN(c2ccc(NC(=O)C(NCCc3ccc(C#N)cc3)c3ccccc3)nc2)CC1 (single isomer, unassigned) [66 Isomer 2]	> 5000 nM
Cn1cc(-c2ccc(NC(=O)C(NCCc3ccc(C#N)cc3)c3cccc(C#N)c3)nc2)cn1 (single isomer, unassigned) [116 Isomer 1]	443 nM
CC(CNC(C(=O)Nc1ccc(-c2cn[nH]c2)cn1)c1ccccc1)c1ccc(C#N)cc1 (single isomer, unassigned) [104 Isomer 4]	1020 nM
O=C(Nc1ccc(-c2cccnn2)cc1)C(NCCc1ccc(Cl)cc1)c1ccccc1 (single isomer, unassigned) [10 Isomer 1]	> 5000 nM
Cn1cc(-c2ccc(NC(=O)C(NCCc3ccc(C#N)cc3F)c3ccccc3)nc2)cn1 (single isomer, unassigned) [29 Isomer 1]	22.9 nM
CCN1CCN(c2ccc(NC(=O)C(NC[C@@H](C)c3ccc(C#N)cc3)c3ccccc3)nc2)CC1=O (single isomer, unassigned) [102 Isomer 1]	30.8 nM
CC(CNC(C(=O)Nc1ccc(-c2cnn(C)c2)cc1)c1ccccc1)c1ccc(Cl)cc1 (single isomer, unassigned) [2 Isomer 4]	> 5000 nM
Cc1ncc(-c2ccc(NC(=O)[C@@H](NC[C@H](C)c3ccc(C#N)cc3)c3ccccc3)nc2)cn1 (single isomer, unassigned; isomer 2) [6 Isomer 2]	> 2000 nM
N#Cc1ccc(CCNC(C(=O)Nc2ccn(-c3ccccc3)n2)c2ccccc2)cc1 (single isomer, unassigned) [50 Isomer 2]	> 5000 nM
C[C@H](CNC(C(=O)Nc1ccc(C2CC(=O)N(C)C2)cn1)c1ccccc1)c1ccc(C#N)cc1 (single isomer, unassigned) [109 Isomer 1]	> 2000 nM
